Each structure is given as a SMILES string.

In the assay the target is T1, PKCζ (Homo sapiens, UniProt Q05513).
T1 construct: gene PRKCZ
T1 sequence (Q05513 1-113): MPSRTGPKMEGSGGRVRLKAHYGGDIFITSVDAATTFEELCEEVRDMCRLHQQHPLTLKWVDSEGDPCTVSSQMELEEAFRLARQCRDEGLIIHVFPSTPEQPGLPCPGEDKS
T1 sequence (Q9NPB6 whole entry partner): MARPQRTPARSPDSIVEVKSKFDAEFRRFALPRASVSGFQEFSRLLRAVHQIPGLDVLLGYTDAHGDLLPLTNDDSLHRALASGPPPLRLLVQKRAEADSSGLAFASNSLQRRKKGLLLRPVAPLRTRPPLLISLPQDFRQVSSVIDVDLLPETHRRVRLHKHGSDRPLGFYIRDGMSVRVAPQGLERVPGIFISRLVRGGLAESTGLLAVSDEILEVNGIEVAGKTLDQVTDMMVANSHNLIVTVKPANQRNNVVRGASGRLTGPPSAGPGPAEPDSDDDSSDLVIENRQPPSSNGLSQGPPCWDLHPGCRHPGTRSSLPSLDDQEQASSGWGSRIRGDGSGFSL

The term IC50 denotes the concentration needed to halve the response being measured. A higher IC50 goes with weaker potency in that assay. In the case of `O=C(O)CC([S][Au])C(=O)O` (stereo not shown) [ATM, Aurothiomalate], the concentration for half-maximal inhibition (IC50) is 3 µM.

These data come from paper PMC4558152, “A small molecule inhibitor of atypical protein kinase C signaling inhibits pancreatic cancer cell transformed growth and invasion” (Oncotarget, 2015).
